“Also recorded” adds a separate entry of the source. Each block holds one molecule with its values, some of them ahead of it. *1 amine or outer side, *2 acyl side, *3 side chain or, on linkers, in order; H or OH if unused. Where a SMILES comes first, the peptide text is derived from it. Where no end group is shown, it is not given here. [ ]: non-standard residue; d: D form. X1 = C=CC(C)(C)n1cc(C[C@@H](N[*:1])C(=O)[*:2])c2ccccc21; X3 = CCCCCn1cc(C[C@@H](N[*:1])C(=O)[*:2])c2ccccc21; X4 = CCCn1cc(C[C@@H](N[*:1])C(=O)[*:2])c2ccccc21; dTrp(1-Bu) = CCCCn1cc(C[C@@H](N)C(=O)O)c2ccccc21; X2 = CCn1cc(C[C@@H](N[*:1])C(=O)[*:2])c2ccccc21; dTrp(1-Me) = Cn1cc(C[C@@H](N)C(=O)O)c2ccccc21; dNMeF = CN[C@H](Cc1ccccc1)C(=O)O
Key:
[1] = Stability in neat mouse plasma (RP-HPLC); assay type: in vitro ADME
Description: When optimising for functional activity there is also a need to assess whether the desired modification will negatively affect the stability of the peptide. Characterisation of the metabolism of peptides is useful to improve their stability in vivo. The finding that a carboxylic acid group, instead of the usual amide, at the C-terminus inactivates the cytotoxicity of 16 (results of 20 - Table 1) may compromise its use in vivo as protein de-amidation reactions are widespread in plasma. Peptides 16 and 19, being the most cytotoxic peptides, were exposed to the conditions of in vitro metabolism in plasma. Peptide 20 lacking the amide group was used as a control. Peptides 16, 19 and 20 were incubated in neat mouse plasma at 37 °C for 48 h. Peptide 2, previously tested over a shorter incubation time, was included for benchmarking purpose.
Peptides were added to neat mouse plasma at a concentration of 400 μg/ml and incubated as the above conditions stated in Section 5.1. Aliquots (20 μl) were taken at 0, 3, 24 and 48 h. To the 20 μl sample, 80 μl of solution B was added and left for 5 min, prior to 1 min sonication to precipitate plasma proteins. The sample was then centrifuged for 5 min at full speed. Then 80 μl of the supernatant was added to 120 μl of solution A and transferred into a HPLC microvial to be analysed using the C8 column. A linear gradient elution was made starting with 100% of solution A and ending after 30 mins with 100% of solution B, with a flow rate of 1 ml/min and followed at λmax 220 nm. The injection volume was 36 μl. Assays were repeated three independent times. HPLC microvials at 0 and 48 h were characterised by ESIMS using the instrument stated in Section 4.1.

H69 cells = assay: Cell viability assay using resazurin dye, H69 cells; assay type: cell-based, human; settings: for IC50: 48 h; for fold enhancement in cytotoxicity compared to tert-Prenyl^4th-NH2 (2): H69 cell line
Protocol: (§1) Cell viability was evaluated by treating H69 and DMS79 cells with peptides 13–20 in the 0.1–30 μM range for 48 h, with subsequent use of the resazurin dye cell viability assay. IC50 values (Table 1) for all the peptides were derived from the dose response curves (Fig. S24). Table 1 also presents the IC50 values obtained for 1 and 2 previously. RPMI-1640 (with L-glutamine and NaHCO3) was obtained from Sigma-Aldrich. Heat Inactivated Fetal Bovine Serum (FBS) was obtained from Life Technologies. H69 and DMS79 SCLC cell lines were obtained from as previously stated. Cells were grown in 10% v/v FBS/RPMI-1640 (complete medium) and incubated at 37 °C in humidified air atmosphere of 5% CO2. Both, H69 and DMS79 cells are suspension cells and grow in aggregates. For the experimental part, cells were re-suspended in fresh complete medium. Dulbecco's PBS (without calcium chloride and magnesium chloride) and Resazurin sodium salt were obtained from Sigma-Aldrich. The peptide concentrations were calculated accurately using UV/VIS Spectrometer Perkin Elmer instrument and dilution of the stock concentration was made using 50% v/v FBS/sterile saline. Concentrations prepared were ranged from 0.6 to 0.002 mM. Cells were seeded in 96-well plates at a seeding density of 1 × 10^4 cells/190 μl/well in triplicates. Peptides were then added on the same day and incubated as the above conditions stated in Section 5.1. The amount of peptide solution added into each well was 10 μl, resulting in a final well concentration of 30 to 0.1 μM. Untreated control samples were also prepared. Samples for background fluorescence for the resazurin dye were also prepared using only complete medium. After 48 h incubation, resazurin dye (20 μl; 0.125 mg/ml in PBS) was added to each well and incubated as the above conditions stated in Section 5.1 for 5 h. Then, fluorescence readings were recorded using a Tecan Safire plate reader and % viability calculated. Assays were repeated three independent times. Graphs were generated using GraphPad Prism 7.00 software.

DMS79 cells = assay: Cell viability assay using resazurin dye, DMS79 cells; assay type: cell-based, human; settings: for IC50: 48 h; for fold enhancement in cytotoxicity compared to tert-Prenyl^4th-NH2 (2) / fold reduction in potency/cytotoxicity compared to 16: DMS79 cell line
Protocol: as §1

[2] = Stability in S9 liver fraction from mouse with cofactors; assay type: in vitro ADME; settings: period of 3 h
Protocol: Peptides 16 and 19 were further subjected to the S9 liver fraction from mouse in the presence of cofactors for a period of 3 h. This would give further insight into the stability of the peptides towards Phase I and Phase II metabolising enzymes.
Eppendorf® tubes were used for sample preparations. Chemicals, HPLC microvials, S9 liver fraction (from mouse (CD-1), male, 20 mg/ml protein basis, vial of 1.0 mL) and co-factors: beta-nictoinamide adenine dinucleotide disodium salt hydrate (NADPH), uridine 5’-diphosphoglucuronic acid trisodium salt (UDPGA), L-glutathione (GSH) and adenosine 3’-phosphate 5’-phosphosulfate lithium salt hydrate (PAPS) were obtained from Sigma-Aldrich. RP-HPLC analysis was performed using the instrument, C8 column and solutions (A and B) stated in Section 4.2.
The preparation and analysis of the samples for peptides stability in the S9 liver fraction from mouse was similar to that for the mouse plasma studies, except that addition of cofactors for enzymes activation was required and the aliquots were taken at 0, 1, 2 and 3 h. The cofactors were added to initiate the study as previously described. Briefly, stock concentrations of NADPH (40 mM), UDPGA (20 mM), GSH (2 mM) and PAPS (2 mg/ml) were prepared using Tris buffer (200 mM) (pH 7.4) containing 2 mM magnesium chloride. […]

[3] = S9 liver fraction (from mouse (CD-1), male, 20 mg/ml protein basis) with cofactors NADPH, UDPGA, GSH and PAPS; settings: up to 3 h
neat mouse plasma = settings: 37 °C, up to 48 h
serine protease = settings: cited from earlier work

% (± SE) of parent peptide to degradation product(s) in plasma studies ([1]; 37 °C, 0 hr, n = 3): 100%
% (± SE) of parent peptide to degradation product(s) in plasma studies ([1]; 37 °C, 24 hrs, n = 3, listed as tert-Prenyl^4th-NH2): ~58%
metabolised at 24 h, 400 μg/ml ([1]; after 24 h exposure, read-out: degraded in plasma): ~42%
Molecule: C=CC(C)(C)n1cc(C[C@@H](NC(=O)[C@H](Cc2ccccc2)NC(=O)[C@@H](Cc2c[nH]c3ccccc23)NC(=O)[C@@H](Cc2ccccc2)NC)C(=O)N[C@@H](CC(C)C)C(N)=O)c2ccccc21 [Peptide 2, DMePhe-DTrp-Phe-DTrp(N-tert-prenyl)-Leu-NH2] (H-[dNMeF][dW]F[X1]L-NH2)

Molecule: CN[C@H](Cc1ccccc1)C(=O)N[C@H](Cc1c[nH]c2ccccc12)C(=O)N[C@@H](Cc1ccccc1)C(=O)N[C@H](Cc1cn(C)c2ccccc12)C(=O)N[C@@H](CC(C)C)C(N)=O [Peptide 13] (H-[dNMeF][dW]F[dTrp(1-Me)]L-NH2)
IC50 (H69 cells): 3980 ± 220 nM
times less active than 2 (H69 cells; H69): ~1.4 times
IC50 (DMS79 cells): 4030 ± 310 nM

Molecule: CCn1cc(C[C@@H](NC(=O)[C@H](Cc2ccccc2)NC(=O)[C@@H](Cc2c[nH]c3ccccc23)NC(=O)[C@@H](Cc2ccccc2)NC)C(=O)N[C@@H](CC(C)C)C(N)=O)c2ccccc21 [Peptide 14] (H-[dNMeF][dW]F[X2]L-NH2)
IC50 (H69 cells): 1830 ± 30 nM
IC50 (DMS79 cells): 1920 ± 30 nM

Molecule: CCCn1cc(C[C@@H](NC(=O)[C@H](Cc2ccccc2)NC(=O)[C@@H](Cc2c[nH]c3ccccc23)NC(=O)[C@@H](Cc2ccccc2)NC)C(=O)N[C@@H](CC(C)C)C(N)=O)c2ccccc21 [Peptide 15] (H-[dNMeF][dW]F[X4]L-NH2)
IC50 (H69 cells): 1570 ± 100 nM
IC50 (DMS79 cells): 1910 ± 30 nM

stability in S9 liver fraction (in words) [2]: completely stable
% (± SE) of parent peptide to degradation product(s) in plasma studies ([1]; 37 °C, 0 hr, n = 3): 100%
% (± SE) of parent peptide to degradation product(s) in plasma studies ([1]; 37 °C, 3 hrs, n = 3): 94.30 ± 0.20%
% (± SE) of parent peptide to degradation product(s) in plasma studies ([1]; 37 °C, 24 hrs, n = 3): > 80%
% (± SE) of parent peptide to degradation product(s) in plasma studies ([1]; 37 °C, 24 hrs, n = 3, 1440 min): 80.30 ± 0.32%
% (± SE) of parent peptide to degradation product(s) in plasma studies ([1]; 37 °C, 48 hrs, n = 3): 68.47 ± 0.23%
Molecule: CCCCn1cc(C[C@@H](NC(=O)[C@H](Cc2ccccc2)NC(=O)[C@@H](Cc2c[nH]c3ccccc23)NC(=O)[C@@H](Cc2ccccc2)NC)C(=O)N[C@@H](CC(C)C)C(N)=O)c2ccccc21 [Peptide 16, DMePhe-DTrp-Phe-DTrp(N-butyl)-Leu-NH2] (H-[dNMeF][dW]F[dTrp(1-Bu)]L-NH2)
IC50 (H69 cells): 1010 ± 20 nM
fold enhancement in cytotoxicity compared to tert-Prenyl^4th-NH2 (2) (H69 cells): ~3 fold
IC50 (DMS79 cells): 1430 ± 140 nM
fold enhancement in cytotoxicity compared to tert-Prenyl^4th-NH2 (2) (DMS79 cells): ~3 fold

Molecule: CCCCCn1cc(C[C@@H](NC(=O)[C@H](Cc2ccccc2)NC(=O)[C@@H](Cc2c[nH]c3ccccc23)NC(=O)[C@@H](Cc2ccccc2)NC)C(=O)N[C@@H](CC(C)C)C(N)=O)c2ccccc21 [Peptide 17] (H-[dNMeF][dW]F[X3]L-NH2)
IC50 (H69 cells): 1800 ± 100 nM
IC50 (DMS79 cells): 2370 ± 60 nM

Molecule: CCCCn1cc(C[C@@H](NC(=O)[C@@H](Cc2ccccc2)NC)C(=O)N[C@@H](Cc2ccccc2)C(=O)N[C@H](Cc2c[nH]c3ccccc23)C(=O)N[C@@H](CC(C)C)C(N)=O)c2ccccc21 [Peptide 18] (H-[dNMeF][dTrp(1-Bu)]F[dW]L-NH2)
IC50 (H69 cells): 4050 ± 170 nM
IC50 (DMS79 cells): 3880 ± 150 nM
fold reduction in potency/cytotoxicity compared to 16 (DMS79 cells): 3–4 fold

stability in S9 liver fraction (in words) [2]: completely stable
% (± SE) of parent peptide to degradation product(s) in plasma studies ([1]; 37 °C, 0 hr, n = 3): 100%
% (± SE) of parent peptide to degradation product(s) in plasma studies ([1]; 37 °C, 3 hrs, n = 3): 98.67 ± 0.69%
% (± SE) of parent peptide to degradation product(s) in plasma studies ([1]; 37 °C, 24 hrs, n = 3): > 80%
% (± SE) of parent peptide to degradation product(s) in plasma studies ([1]; 37 °C, 24 hrs, n = 3, 1440 min): 89.73 ± 0.68%
% (± SE) of parent peptide to degradation product(s) in plasma studies ([1]; 37 °C, 48 hrs, n = 3): 81%
% (± SE) of parent peptide to degradation product(s) in plasma studies ([1]; 37 °C, 48 hrs, n = 3, 2880 min): 81.00 ± 2.25%
Molecule: CCCCn1cc(C[C@@H](NC(=O)[C@H](Cc2ccccc2)NC(=O)[C@@H](Cc2cn(CCCC)c3ccccc23)NC(=O)[C@@H](Cc2ccccc2)NC)C(=O)N[C@@H](CC(C)C)C(N)=O)c2ccccc21 [Peptide 19] (H-[dNMeF][dTrp(1-Bu)]F[dTrp(1-Bu)]L-NH2)
IC50 (H69 cells): 630 ± 50 nM
fold enhancement in cytotoxicity compared to tert-Prenyl^4th-NH2 (2) (H69 cells): ~4.5 fold
IC50 (DMS79 cells): 2310 ± 120 nM
fold enhancement in cytotoxicity compared to tert-Prenyl^4th-NH2 (2) (DMS79 cells): ~2 fold
fold reduction in potency/cytotoxicity compared to 16 (DMS79 cells): ~1.6 fold

% (± SE) of parent peptide to degradation product(s) in plasma studies ([1]; 37 °C, 0 hr, n = 3): 100%
% (± SE) of parent peptide to degradation product(s) in plasma studies ([1]; 37 °C, 3 hrs, n = 3): 100%
% (± SE) of parent peptide to degradation product(s) in plasma studies ([1]; 37 °C, 24 hrs, n = 3): 100%
% (± SE) of parent peptide to degradation product(s) in plasma studies ([1]; 37 °C, 48 hrs, n = 3): 100%
Molecule: CCCCn1cc(C[C@@H](NC(=O)[C@H](Cc2ccccc2)NC(=O)[C@@H](Cc2c[nH]c3ccccc23)NC(=O)[C@@H](Cc2ccccc2)NC)C(=O)N[C@@H](CC(C)C)C(=O)O)c2ccccc21 [Peptide 20] (H-[dNMeF][dW]F[dTrp(1-Bu)]L-OH)
degradation in plasma (in words) ([1]; 37 °C, up to 48 h, RP-HPLC and MS): no sign of degradation; also recorded: complete stability in plasma
IC50 (H69 cells): > 30000 nM
IC50 (DMS79 cells): > 30000 nM

cleaved bond (neat mouse plasma): Leu-NH2, 3 hrs
Molecule: DMePhe-DTrp-Phe-DTrp(N-butyl)-Leu-NH2 (H-[dNMeF][dW]F[dTrp(1-Bu)]L-NH2; SMILES CCCCn1cc(C[C@@H](NC(=O)[C@H](Cc2ccccc2)NC(=O)[C@@H](Cc2c[nH]c3ccccc23)NC(=O)[C@@H](Cc2ccccc2)NC)C(=O)N[C@@H](CC(C)C)C(N)=O)c2ccccc21)
not cleaved [3]: completely stable in S9 liver fraction (3 h)

cleaved bond (neat mouse plasma): Leu-NH2, 3 hrs
Molecule: DMePhe-DTrp-Phe-DTrp(N-tert-prenyl)-Leu-NH2 (H-[dNMeF][dW]F[X1]L-NH2; SMILES C=CC(C)(C)n1cc(C[C@@H](NC(=O)[C@H](Cc2ccccc2)NC(=O)[C@@H](Cc2c[nH]c3ccccc23)NC(=O)[C@@H](Cc2ccccc2)NC)C(=O)N[C@@H](CC(C)C)C(N)=O)c2ccccc21)

Molecule: [dR]PKP[dF]Q[dW]F[dW]LL-NH2
cleaved bond (serine protease): Leu-NH2, major
